We go through one compound from patent publication US11820799B2, “Malassezia factor with antibiotic activity” (priority 2021, dated 2023).

This test concerns S. aureus. The test is described as follows: S. aureus growth curves / MIC with oxacillin in TSB. The format is cell-based, Staphylococcus aureus. As for the experimental part:
S. aureus growth curves: S. aureus growth curves were performed on a BioTek Synergy™ H1 monochromator-based multi-mode microplate reader in non-treated flat bottom 96-well plates. S. aureus grown overnight in 5 mL of TSB was subcultured 1:10 in fresh TSB for 1 h. Cells were collected through centrifugation at 5,000×g for 1 min and resuspended in fresh TSB. For 0 μg/mL oxacillin, 4 μg/mL oxacillin, and 16 μg/mL oxacillin TSB was utilized with a starting OD600 of 0.02.

The MIC is the lowest concentration that inhibits growth of the organism. Regarding `Cc1onc(-c2ccccc2)c1C(=O)N[C@@H]1C(=O)N2[C@@H]1SC(C)(C)[C@@H]2C(=O)O` [oxacillin], the “growth of CFS-resistant strains with Sa-rel mutations (EVOL-P1 Y1 and IsoA)” value is “able to grow robustly” (4 μg/mL oxacillin in TSB) and “able to grow robustly” (16 μg/mL oxacillin in TSB). Further, the MIC (Staphylococcus aureus, ancestral strain, rich media (tryptic soy broth, TSB)) fell in the range of 4 to 8 µg/mL.
